Source: patent US20260242419A1, “A CYCLIC PEPTIDE FOR TRAPPING INTERLEUKIN-1 BETA” (Merck Sharp & Dohme LLC, priority 2023, published 2026)
Starred links: 1 amine or outer side, 2 acyl side, 3 side chain; linkers in the order of their positions; H or OH if unused. Non-standard residues stand in square brackets, D forms with d. Residues, ends and D or L forms follow the SMILES beside them. dPro(4R-(4-pyridylmethyl)) = O=C(O)[C@H]1C[C@@H](Cc2ccncc2)CN1; dPro(3S-(4-Br-benzyl)) = O=C(O)[C@@H]1NCC[C@@H]1Cc1ccc(Br)cc1; Trp(βS-Me,4-F) = C[C@@H](c1c[nH]c2cccc(F)c12)[C@H](N)C(=O)O; Bip(4'-COOH) = N[C@@H](Cc1ccc(-c2ccc(C(=O)O)cc2)cc1)C(=O)O; Ala(1-bicyclo(1.1.1)pentyl) = N[C@@H](CC12CC(C1)C2)C(=O)O; X28 = CC(=O)N1CCN(c2ncc(C[C@H](N[*:1])C(=O)[*:2])cn2)CC1; dPro(4R-Bzl(4-F)) = O=C(O)[C@H]1C[C@@H](Cc2ccc(F)cc2)CN1; Ala(pyrimidin-5-yl) = N[C@@H](Cc1cncnc1)C(=O)O; Phe(4-COOH) = N[C@@H](Cc1ccc(C(=O)O)cc1)C(=O)O; Pro(cis-4-F) = O=C(O)[C@@H]1C[C@H](F)CN1; AEF = NCCOc1ccc(C[C@H](N)C(=O)O)cc1; 4Pal = N[C@@H](Cc1ccncc1)C(=O)O; Dab = NCC[C@H](N)C(=O)O; Dap = NC[C@H](N)C(=O)O; Aib = CC(C)(N)C(=O)O

Each molecule was assayed against T1, IL-1β (Homo sapiens, UniProt P01584) (assay: IL-6 assay in MRC5 cells: inhibition of IL-1β induced IL-6 secretion (AlphaLISA)). Conditions: inhibition of IL-1β induced IL-6 secretion in MRC5 cells; read-out: MRC5 IC50.
T1 construct: purchased BioLegend 579404
T1 sequence (P01584 117-269): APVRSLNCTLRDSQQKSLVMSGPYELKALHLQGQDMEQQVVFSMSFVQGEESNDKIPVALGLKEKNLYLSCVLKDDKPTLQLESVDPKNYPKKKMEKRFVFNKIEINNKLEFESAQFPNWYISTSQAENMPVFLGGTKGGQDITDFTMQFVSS
Type: cell-based
Outline: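 Compound was pre-incubated 1 h at ambient temperature with recombinant human IL-1β at 2λ EC80 before adding human lung fibroblast MRC5 cells (3000/well) in EMEM with 0.025% BSA. After overnight culture at 37 °C, 5% CO2, secreted IL-6 in conditioned medium was measured by AlphaLISA; IC50 from 4-parameter logistic fits.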
`CC(=O)N1CCN(c2ncc(C[C@@H]3NC(=O)[C@H]4C[C@@H](Cc5ccc(F)cc5)CN4C(=O)CNC(=O)[C@H](CCN)NC(=O)[C@H](CCC(N)=O)NC(=O)[C@H](Cc4cncnc4)NC(=O)C(C)(C)NC(=O)[C@H](Cc4c[nH]c5ccccc45)NC(=O)[C@H](CCC(=O)O)NC(=O)C(C)(C)NC(=O)[C@H]([C@@H](C)c4c[nH]c5cccc(F)c45)NC(=O)[C@@H]4C[C@H](F)CN4C(=O)CNC(=O)[C@H](Cc4ccc(C(=O)O)cc4)NC(=O)[C@H](Cc4ccncc4)NC3=O)cn2)CC1` [Example 40] (cyclo([X28][4Pal][Phe(4-COOH)]G[Pro(cis-4-F)][Trp(βS-Me,4-F)][Aib]EW[Aib][Ala(pyrimidin-5-yl)]Q[Dab]G[dPro(4R-Bzl(4-F))])) was tested, and the IC50 was 0.048 nM.
Molecule `C[C@@H]1NC(=O)C(C)(C)NC(=O)[C@H]([C@@H](C)c2c[nH]c3cccc(F)c23)NC(=O)[C@@H]2C[C@H](F)CN2C(=O)CNC(=O)[C@H](Cc2ccc(C(=O)O)cc2)NC(=O)[C@H](Cc2ccncc2)NC(=O)[C@H](Cc2ccc(-c3ccc(C(=O)O)cc3)cc2)NC(=O)[C@H]2C[C@@H](Cc3ccncc3)CN2C(=O)CNC(=O)[C@H](CCN)NC(=O)[C@H](CCC(N)=O)NC(=O)[C@H](Cc2cncnc2)NC(=O)C(C)(C)NC(=O)[C@H](Cc2c[nH]c3ccccc23)NC1=O` [Example 41] (cyclo([4Pal][Phe(4-COOH)]G[Pro(cis-4-F)][Trp(βS-Me,4-F)][Aib]AW[Aib][Ala(pyrimidin-5-yl)]Q[Dab]G[dPro(4R-(4-pyridylmethyl))][Bip(4'-COOH)])) has an IC50 of 0.029 nM.
Molecule `C[C@@H](c1c[nH]c2cccc(F)c12)[C@@H]1NC(=O)[C@@H]2C[C@H](F)CN2C(=O)CNC(=O)[C@H](Cc2ccc(C(=O)O)cc2)NC(=O)[C@H](Cc2ccncc2)NC(=O)[C@H](Cc2ccc(-c3ccc(C(=O)O)cc3)cc2)NC(=O)[C@H]2C[C@@H](Cc3ccncc3)CN2C(=O)CNC(=O)[C@H](CCN)NC(=O)[C@H](CCC(N)=O)NC(=O)[C@H](Cc2cncnc2)NC(=O)C(C)(C)NC(=O)[C@H](Cc2c[nH]c3ccccc23)NC(=O)[C@H](CO)NC(=O)C(C)(C)NC1=O` [Example 42] (cyclo([4Pal][Phe(4-COOH)]G[Pro(cis-4-F)][Trp(βS-Me,4-F)][Aib]SW[Aib][Ala(pyrimidin-5-yl)]Q[Dab]G[dPro(4R-(4-pyridylmethyl))][Bip(4'-COOH)])) has an IC50 of 0.021 nM.
For `C[C@@H](c1c[nH]c2cccc(F)c12)[C@@H]1NC(=O)[C@@H]2C[C@H](F)CN2C(=O)CNC(=O)[C@H](Cc2ccc(C(=O)O)cc2)NC(=O)[C@H](CC23CC(C2)C3)NC(=O)[C@H](Cc2ccc(-c3ccc(C(=O)O)cc3)cc2)NC(=O)[C@H]2C[C@@H](Cc3ccncc3)CN2C(=O)CNC(=O)[C@H](CCN)NC(=O)[C@H](CCC(N)=O)NC(=O)[C@H](Cc2cncnc2)NC(=O)C(C)(C)NC(=O)[C@H](Cc2c[nH]c3ccccc23)NC(=O)[C@H](CCC(=O)O)NC(=O)C(C)(C)NC1=O` [Example 43] (cyclo([Bip(4'-COOH)][Ala(1-bicyclo(1.1.1)pentyl)][Phe(4-COOH)]G[Pro(cis-4-F)][Trp(βS-Me,4-F)][Aib]EW[Aib][Ala(pyrimidin-5-yl)]Q[Dab]G[dPro(4R-(4-pyridylmethyl))])), the IC50 was 0.026 nM.
`C[C@@H](c1c[nH]c2cccc(F)c12)[C@@H]1NC(=O)[C@@H]2C[C@H](F)CN2C(=O)CNC(=O)[C@H](Cc2ccc(C(=O)O)cc2)NC(=O)[C@H](CC23CC(C2)C3)NC(=O)[C@H](Cc2ccc(-c3ccc(C(=O)O)cc3)cc2)NC(=O)[C@H]2C[C@@H](Cc3ccncc3)CN2C(=O)CNC(=O)[C@H](CCN)NC(=O)[C@H](CCC(N)=O)NC(=O)[C@H](Cc2cncnc2)NC(=O)C(C)(C)NC(=O)[C@H](Cc2c[nH]c3ccccc23)NC(=O)[C@H](CO)NC(=O)C(C)(C)NC1=O` [Example 44] (cyclo([Aib]SW[Aib][Ala(pyrimidin-5-yl)]Q[Dab]G[dPro(4R-(4-pyridylmethyl))][Bip(4'-COOH)][Ala(1-bicyclo(1.1.1)pentyl)][Phe(4-COOH)]G[Pro(cis-4-F)][Trp(βS-Me,4-F)])) showed an IC50 of 0.021 nM.
For `C[C@@H](c1c[nH]c2cccc(F)c12)[C@@H]1NC(=O)[C@@H]2C[C@H](F)CN2C(=O)CNC(=O)[C@H](Cc2ccc(C(=O)O)cc2)NC(=O)[C@H](CC23CC(C2)C3)NC(=O)[C@H](Cc2ccc(-c3ccc(C(=O)O)cc3)cc2)NC(=O)[C@H]2C[C@@H](Cc3ccncc3)CN2C(=O)CNC(=O)[C@H](CCN)NC(=O)[C@H](CCC(N)=O)NC(=O)[C@H](Cc2ccncc2)NC(=O)C(C)(C)NC(=O)[C@H](Cc2c[nH]c3ccccc23)NC(=O)[C@H](CCC(=O)O)NC(=O)C(C)(C)NC1=O` [Example 45] (cyclo([Bip(4'-COOH)][Ala(1-bicyclo(1.1.1)pentyl)][Phe(4-COOH)]G[Pro(cis-4-F)][Trp(βS-Me,4-F)][Aib]EW[Aib][4Pal]Q[Dab]G[dPro(4R-(4-pyridylmethyl))])), the IC50 was 0.027 nM.
`C[C@@H](c1c[nH]c2cccc(F)c12)[C@@H]1NC(=O)[C@@H]2C[C@H](F)CN2C(=O)CNC(=O)[C@H](Cc2ccc(C(=O)O)cc2)NC(=O)[C@H](CC23CC(C2)C3)NC(=O)[C@H](Cc2ccc(-c3ccc(C(=O)O)cc3)cc2)NC(=O)[C@H]2C[C@@H](Cc3ccncc3)CN2C(=O)CNC(=O)[C@H](CN)NC(=O)[C@H](CCC(N)=O)NC(=O)[C@H](Cc2cncnc2)NC(=O)C(C)(C)NC(=O)[C@H](Cc2c[nH]c3ccccc23)NC(=O)[C@H](CCC(=O)O)NC(=O)C(C)(C)NC1=O` [Example 46] (cyclo([Bip(4'-COOH)][Ala(1-bicyclo(1.1.1)pentyl)][Phe(4-COOH)]G[Pro(cis-4-F)][Trp(βS-Me,4-F)][Aib]EW[Aib][Ala(pyrimidin-5-yl)]Q[Dap]G[dPro(4R-(4-pyridylmethyl))])) gave an IC50 of 0.034 nM.
In the case of `C[C@@H](c1c[nH]c2cccc(F)c12)[C@@H]1NC(=O)[C@@H]2C[C@H](F)CN2C(=O)CNC(=O)[C@H](Cc2ccc(C(=O)O)cc2)NC(=O)[C@H](Cc2ccncc2)NC(=O)[C@H](Cc2ccc(-c3ccc(C(=O)O)cc3)cc2)NC(=O)[C@H]2C[C@@H](Cc3ccncc3)CN2C(=O)CNC(=O)[C@H](CN)NC(=O)[C@H](CCC(N)=O)NC(=O)[C@H](Cc2ccncc2)NC(=O)C(C)(C)NC(=O)[C@H](Cc2c[nH]c3ccccc23)NC(=O)[C@H](CCC(=O)O)NC(=O)C(C)(C)NC1=O` [Example 47] (cyclo([Bip(4'-COOH)][4Pal][Phe(4-COOH)]G[Pro(cis-4-F)][Trp(βS-Me,4-F)][Aib]EW[Aib][4Pal]Q[Dap]G[dPro(4R-(4-pyridylmethyl))])), the IC50 is reported as 0.029 nM.
`C[C@@H](c1c[nH]c2cccc(F)c12)[C@@H]1NC(=O)[C@@H]2C[C@H](F)CN2C(=O)CNC(=O)[C@H](Cc2ccc(C(=O)O)cc2)NC(=O)[C@H](CC23CC(C2)C3)NC(=O)[C@H](Cc2ccc(-c3ccc(C(=O)O)cc3)cc2)NC(=O)[C@H]2C[C@@H](Cc3ccncc3)CN2C(=O)CNC(=O)[C@H](CN)NC(=O)[C@H](CCC(N)=O)NC(=O)[C@H](Cc2ccncc2)NC(=O)C(C)(C)NC(=O)[C@H](Cc2c[nH]c3ccccc23)NC(=O)[C@H](CCC(=O)O)NC(=O)C(C)(C)NC1=O` [Example 48] (cyclo([4Pal]Q[Dap]G[dPro(4R-(4-pyridylmethyl))][Bip(4'-COOH)][Ala(1-bicyclo(1.1.1)pentyl)][Phe(4-COOH)]G[Pro(cis-4-F)][Trp(βS-Me,4-F)][Aib]EW[Aib])) gave an IC50 of 0.027 nM.
For `CC(=O)NCCOc1ccc(C[C@@H]2NC(=O)[C@H]3C[C@@H](Cc4ccncc4)CN3C(=O)CNC(=O)[C@H](CCN)NC(=O)[C@H](CCC(N)=O)NC(=O)[C@H](Cc3cncnc3)NC(=O)C(C)(C)NC(=O)[C@H](Cc3c[nH]c4ccccc34)NC(=O)[C@H](CCC(=O)O)NC(=O)C(C)(C)NC(=O)[C@H]([C@@H](C)c3c[nH]c4cccc(F)c34)NC(=O)[C@@H]3C[C@H](F)CN3C(=O)CNC(=O)[C@H](Cc3ccc(C(=O)O)cc3)NC(=O)[C@H](Cc3ccncc3)NC2=O)cc1` [Example 49] (cyclo([AEF](Ac)[4Pal][Phe(4-COOH)]G[Pro(cis-4-F)][Trp(βS-Me,4-F)][Aib]EW[Aib][Ala(pyrimidin-5-yl)]Q[Dab]G[dPro(4R-(4-pyridylmethyl))])), the IC50 was 0.047 nM.
With `CC(=O)NCCOc1ccc(C[C@@H]2NC(=O)[C@H]3C[C@@H](Cc4ccncc4)CN3C(=O)CNC(=O)[C@H](CCN)NC(=O)[C@H](CCC(N)=O)NC(=O)[C@H](Cc3cncnc3)NC(=O)C(C)(C)NC(=O)[C@H](Cc3c[nH]c4ccccc34)NC(=O)[C@H](CCC(=O)O)NC(=O)C(C)(C)NC(=O)[C@H]([C@@H](C)c3c[nH]c4cccc(F)c34)NC(=O)[C@@H]3C[C@H](F)CN3C(=O)CNC(=O)[C@H](Cc3ccc(C(=O)O)cc3)NC(=O)[C@H](CC34CC(C3)C4)NC2=O)cc1` [Example 50] (cyclo([AEF](Ac)[Ala(1-bicyclo(1.1.1)pentyl)][Phe(4-COOH)]G[Pro(cis-4-F)][Trp(βS-Me,4-F)][Aib]EW[Aib][Ala(pyrimidin-5-yl)]Q[Dab]G[dPro(4R-(4-pyridylmethyl))])) the IC50 was 0.044 nM.
`C[C@@H](c1c[nH]c2cccc(F)c12)[C@@H]1NC(=O)[C@@H]2C[C@H](F)CN2C(=O)CNC(=O)[C@H](Cc2ccc(C(=O)O)cc2)NC(=O)[C@H](Cc2ccncc2)NC(=O)[C@H](Cc2ccc(-c3ccc(C(=O)O)cc3)cc2)NC(=O)[C@H]2[C@@H](Cc3ccc(Br)cc3)CCN2C(=O)CNC(=O)[C@H](CCN)NC(=O)[C@H](CCC(N)=O)NC(=O)[C@H](Cc2cncnc2)NC(=O)C(C)(C)NC(=O)[C@H](Cc2c[nH]c3ccccc23)NC(=O)[C@H](CCC(=O)O)NC(=O)C(C)(C)NC1=O` [Example 51] (cyclo([4Pal][Phe(4-COOH)]G[Pro(cis-4-F)][Trp(βS-Me,4-F)][Aib]EW[Aib][Ala(pyrimidin-5-yl)]Q[Dab]G[dPro(3S-(4-Br-benzyl))][Bip(4'-COOH)])) gave an IC50 of 0.014 nM.
